According to ChEMBL document CHEMBL1671854, “ramR mutations involved in efflux-mediated multidrug resistance in Salmonella enterica serovar Typhimurium” (2008):
Values after ≈ are worked out from the molar mass of the structure shown.

Experiments:
Format in all cases: functional, Salmonella enterica subsp. enterica serovar Typhimurium
Salmonella typhimurium [1] = assay: Antimicrobial activity against multidrug-resistant Salmonella enterica serovar Typhimurium BN9181 by agar doubling dilution method
Salmonella typhimurium [2] = assay: Antimicrobial activity against multidrug-resistant Salmonella enterica serovar Typhimurium 543SA98 harboring plasmid encoded RamR gene, GyrA S83Y mutant gene by agar doubling dilution method
Salmonella typhimurium [3] = assay: Antimicrobial activity against multidrug-resistant Salmonella enterica serovar Typhimurium 902SA92 harboring plasmid encoded RamR gene, GyrA S83A and D87N, GyrB S464F and ParC S80I mutant genes by agar doubling dilution method
Salmonella typhimurium [4] = assay: Antimicrobial activity against ramA::kan-deficient Salmonella enterica serovar Typhimurium BN18/41 harboring plasmid encoded RamR gene, GyrA G81C,acrR mutant genes by agar doubling dilution method
Salmonella typhimurium [5] = assay: Antimicrobial activity against multidrug-resistant Salmonella enterica serovar Typhimurium BN9945 by agar doubling dilution method
Salmonella typhimurium [6] = assay: Antimicrobial activity against multidrug-resistant Salmonella enterica serovar Typhimurium BN10055 harboring plasmid encoded RamR gene, GyrA S83Y mutant gene by agar doubling dilution method
Salmonella typhimurium [7] = assay: Antimicrobial activity against multidrug-resistant Salmonella enterica serovar Typhimurium 102SA00 harboring plasmid encoded RamR gene, GyrA S83A and D87N, GyrB S464F and ParC S80I mutant genes by agar doubling dilution method
Salmonella typhimurium [8] = assay: Antimicrobial activity against multidrug-resistant Salmonella enterica serovar Typhimurium BN9945 harboring plasmid encoded RamR gene by agar doubling dilution method
Salmonella typhimurium [9] = assay: Antimicrobial activity against ramA::kan-deficient Salmonella enterica serovar Typhimurium BN18/71 harboring plasmid encoded RamR gene, GyrA G81C,acrR mutant genes by agar doubling dilution method
Salmonella typhimurium [10] = assay: Antimicrobial activity against ramR-deficient Salmonella enterica serovar Typhimurium S/921495 harboring plasmid encoded RamR gene by agar doubling dilution method
Salmonella typhimurium [11] = assay: Antimicrobial activity against multidrug-resistant Salmonella enterica serovar Typhimurium 902SA92 harboring GyrA S83A and D87N, GyrB S464F and ParC S80I mutant genes by agar doubling dilution method
Salmonella typhimurium [12] = assay: Antimicrobial activity against ramR-deficient Salmonella enterica serovar Typhimurium S/921495 by agar doubling dilution method
Salmonella typhimurium [13] = assay: Antimicrobial activity against Salmonella enterica serovar Typhimurium BN18/41 harboring plasmid encoded RamR gene, GyrA G81C,acrR mutant genes by agar doubling dilution method
Salmonella typhimurium [14] = assay: Antimicrobial activity against soxR::kan-deficient Salmonella enterica serovar Typhimurium S/921495 by agar doubling dilution method
Salmonella typhimurium [15] = assay: Antimicrobial activity against Salmonella enterica serovar Typhimurium BN18/21 by agar doubling dilution method
Salmonella typhimurium [16] = assay: Antimicrobial activity against soxS::kan-deficient Salmonella enterica serovar Typhimurium S/921495 by agar doubling dilution method
Salmonella typhimurium [17] = assay: Antimicrobial activity against ramA::kan-deficient Salmonella enterica serovar Typhimurium 902SA92 harboring GyrA S83A and D87N, GyrB S464F and ParC S80I mutant genes by agar doubling dilution method
Salmonella typhimurium [18] = assay: Antimicrobial activity against ramR::kan-deficient Salmonella enterica serovar Typhimurium S/921495 by agar doubling dilution method
Salmonella typhimurium [19] = assay: Antimicrobial activity against Salmonella enterica serovar Typhimurium BN18/71 harboring plasmid encoded RamR gene, GyrA G81C,acrR mutant genes by agar doubling dilution method
Salmonella typhimurium [20] = assay: Antimicrobial activity against Salmonella enterica serovar Typhimurium BN18 by agar doubling dilution method
Salmonella typhimurium [21] = assay: Antimicrobial activity against multidrug-resistant Salmonella enterica serovar Typhimurium BN10055 harboring GyrA S83Y mutant gene by agar doubling dilution method
Salmonella typhimurium [22] = assay: Antimicrobial activity against Salmonella enterica serovar Typhimurium S/921495 harboring plasmid encoded RamR gene by agar doubling dilution method
Salmonella typhimurium [23] = assay: Antimicrobial activity against ramA::kan-deficient Salmonella enterica serovar Typhimurium 102SA00 harboring GyrA S83A and D87N, GyrB S464F and ParC S80I mutant genes by agar doubling dilution method
Salmonella typhimurium [24] = assay: Antimicrobial activity against multidrug-resistant Salmonella enterica serovar Typhimurium 543SA98 harboring GyrA […] mutant gene by agar doubling dilution method
Salmonella typhimurium [25] = assay: Antimicrobial activity against ramA::kan-deficient Salmonella enterica serovar Typhimurium BN9181 by agar doubling dilution method
Salmonella typhimurium [26] = assay: Antimicrobial activity against ramA::kan-deficient Salmonella enterica serovar Typhimurium BN18/21 by agar doubling dilution method
Salmonella typhimurium [27] = assay: Antimicrobial activity against ramA::kan-deficient Salmonella enterica serovar Typhimurium S/921495 by agar doubling dilution method
Salmonella typhimurium [28] = assay: Antimicrobial activity against multidrug-resistant Salmonella enterica serovar Typhimurium 102SA00 harboring GyrA S83A and D87N, GyrB S464F and ParC S80I mutant genes by agar doubling dilution method
Salmonella typhimurium [29] = assay: Antimicrobial activity against multidrug-resistant Salmonella enterica serovar Typhimurium BN9181 harboring plasmid encoded RamR gene by agar doubling dilution method
Salmonella typhimurium [30] = assay: Antimicrobial activity against Salmonella enterica serovar Typhimurium BN18 harboring plasmid encoded RamR gene by agar doubling dilution method
Salmonella typhimurium [31] = assay: Antimicrobial activity against Salmonella enterica serovar Typhimurium S/921495 by agar doubling dilution method
Salmonella typhimurium [32] = assay: Antimicrobial activity against Salmonella enterica serovar Typhimurium BN18/21 harboring plasmid encoded RamR gene by agar doubling dilution method
Salmonella typhimurium [33] = assay: Antimicrobial activity against marA::kan-deficient Salmonella enterica serovar Typhimurium S/921495 by agar doubling dilution method
Salmonella typhimurium [34] = assay: Antimicrobial activity against Salmonella enterica serovar Typhimurium BN18/41 harboring GyrA G81C,acrR mutant genes by agar doubling dilution method
Salmonella typhimurium [35] = assay: Antimicrobial activity against ramA::kan-deficient Salmonella enterica serovar Typhimurium BN10055 harboring GyrA S83Y mutant gene by agar doubling dilution method
Salmonella typhimurium [36] = assay: Antimicrobial activity against ramA::kan-deficient Salmonella enterica serovar Typhimurium 543SA98 harboring GyrA S83Y mutant gene by agar doubling dilution method
Salmonella typhimurium [37] = assay: Antimicrobial activity against marR-deficient Salmonella enterica serovar Typhimurium S/921495 by agar doubling dilution method
Salmonella typhimurium [38] = assay: Antimicrobial activity against marR::kan-deficient Salmonella enterica serovar Typhimurium S/921495 by agar doubling dilution method
Salmonella typhimurium [39] = assay: Antimicrobial activity against ramA::kan-deficient Salmonella enterica serovar Typhimurium BN18 by agar doubling dilution method
Salmonella typhimurium [40] = assay: Antimicrobial activity against ramA::kan-deficient Salmonella enterica serovar Typhimurium BN9945 by agar doubling dilution method
Salmonella typhimurium [41] = assay: Antimicrobial activity against Salmonella enterica serovar Typhimurium BN18/71 harboring GyrA G81C, acrR mutant genes by agar doubling dilution method

CN(C)[C@@H]1C(O)=C(C(N)=O)C(=O)[C@@]2(O)C(O)=C3C(=O)c4c(O)cccc4[C@@](C)(O)[C@H]3C[C@@H]12 [TETRACYCLINE]
MIC (Salmonella typhimurium [1]): 32 µg/mL (≈ 72 µM) | MIC (Salmonella typhimurium [2]): 32 µg/mL (≈ 72 µM) | MIC (Salmonella typhimurium [3]): 256 µg/mL (≈ 576 µM) | MIC (Salmonella typhimurium [4]): 2 µg/mL (≈ 4.5 µM) | MIC (Salmonella typhimurium [5]): 128 µg/mL (≈ 288 µM) | MIC (Salmonella typhimurium [6]): 256 µg/mL (≈ 576 µM) | MIC (Salmonella typhimurium [7]): 256 µg/mL (≈ 576 µM) | MIC (Salmonella typhimurium [8]): 32 µg/mL (≈ 72 µM) | MIC (Salmonella typhimurium [9]): 2 µg/mL (≈ 4.5 µM) | MIC (Salmonella typhimurium [10]): 1 µg/mL (≈ 2.25 µM) | MIC (Salmonella typhimurium [11]): 256 µg/mL (≈ 576 µM) | MIC (Salmonella typhimurium [12]): 4 µg/mL (≈ 9 µM) | MIC (Salmonella typhimurium [13]): 2 µg/mL (≈ 4.5 µM) | MIC (Salmonella typhimurium [14]): 1 µg/mL (≈ 2.25 µM) | MIC (Salmonella typhimurium [15]): 4 µg/mL (≈ 9 µM) | MIC (Salmonella typhimurium [16]): 1 µg/mL (≈ 2.25 µM) | MIC (Salmonella typhimurium [17]): 256 µg/mL (≈ 576 µM) | MIC (Salmonella typhimurium [18]): 4 µg/mL (≈ 9 µM) | MIC (Salmonella typhimurium [19]): 2 µg/mL (≈ 4.5 µM) | MIC (Salmonella typhimurium [20]): 1 µg/mL (≈ 2.25 µM) | MIC (Salmonella typhimurium [21]): 256 µg/mL (≈ 576 µM) | MIC (Salmonella typhimurium [22]): 1 µg/mL (≈ 2.25 µM) | MIC (Salmonella typhimurium [23]): 256 µg/mL (≈ 576 µM) | MIC (Salmonella typhimurium [24]): 128 µg/mL (≈ 288 µM) | MIC (Salmonella typhimurium [25]): 32 µg/mL (≈ 72 µM) | MIC (Salmonella typhimurium [26]): 1 µg/mL (≈ 2.25 µM) | MIC (Salmonella typhimurium [27]): 1 µg/mL (≈ 2.25 µM) | MIC (Salmonella typhimurium [28]): 256 µg/mL (≈ 576 µM) | MIC (Salmonella typhimurium [29]): 32 µg/mL (≈ 72 µM) | MIC (Salmonella typhimurium [30]): 1 µg/mL (≈ 2.25 µM) | MIC (Salmonella typhimurium [31]): 1 µg/mL (≈ 2.25 µM) | MIC (Salmonella typhimurium [32]): 1 µg/mL (≈ 2.25 µM) | MIC (Salmonella typhimurium [33]): 1 µg/mL (≈ 2.25 µM) | MIC (Salmonella typhimurium [34]): 8 µg/mL (≈ 18 µM) | MIC (Salmonella typhimurium [35]): 64 µg/mL (≈ 144 µM) | MIC (Salmonella typhimurium [36]): 32 µg/mL (≈ 72 µM) | MIC (Salmonella typhimurium [37]): 1 µg/mL (≈ 2.25 µM) | MIC (Salmonella typhimurium [38]): 1 µg/mL (≈ 2.25 µM) | MIC (Salmonella typhimurium [39]): 1 µg/mL (≈ 2.25 µM) | MIC (Salmonella typhimurium [40]): 32 µg/mL (≈ 72 µM) | MIC (Salmonella typhimurium [41]): 16 µg/mL (≈ 36 µM)

CS(=O)(=O)c1ccc([C@@H](O)[C@@H](CF)NC(=O)C(Cl)Cl)cc1 [FLORFENICOL]
MIC (Salmonella typhimurium [1]): 32 µg/mL (≈ 89.3 µM) | MIC (Salmonella typhimurium [2]): 128 µg/mL (≈ 357 µM) | MIC (Salmonella typhimurium [3]): 4 µg/mL (≈ 11.2 µM) | MIC (Salmonella typhimurium [4]): 8 µg/mL (≈ 22.3 µM) | MIC (Salmonella typhimurium [5]): 128 µg/mL (≈ 357 µM) | MIC (Salmonella typhimurium [6]): 128 µg/mL (≈ 357 µM) | MIC (Salmonella typhimurium [7]): 4 µg/mL (≈ 11.2 µM) | MIC (Salmonella typhimurium [8]): 64 µg/mL (≈ 179 µM) | MIC (Salmonella typhimurium [9]): 8 µg/mL (≈ 22.3 µM) | MIC (Salmonella typhimurium [10]): 4 µg/mL (≈ 11.2 µM) | MIC (Salmonella typhimurium [11]): 16 µg/mL (≈ 44.7 µM) | MIC (Salmonella typhimurium [12]): 16 µg/mL (≈ 44.7 µM) | MIC (Salmonella typhimurium [13]): 8 µg/mL (≈ 22.3 µM) | MIC (Salmonella typhimurium [14]): 4 µg/mL (≈ 11.2 µM) | MIC (Salmonella typhimurium [15]): 16 µg/mL (≈ 44.7 µM) | MIC (Salmonella typhimurium [16]): 4 µg/mL (≈ 11.2 µM) | MIC (Salmonella typhimurium [17]): 4 µg/mL (≈ 11.2 µM) | MIC (Salmonella typhimurium [18]): 16 µg/mL (≈ 44.7 µM) | MIC (Salmonella typhimurium [19]): 8 µg/mL (≈ 22.3 µM) | MIC (Salmonella typhimurium [20]): 4 µg/mL (≈ 11.2 µM) | MIC (Salmonella typhimurium [21]): 128 µg/mL (≈ 357 µM) | MIC (Salmonella typhimurium [22]): 4 µg/mL (≈ 11.2 µM) | MIC (Salmonella typhimurium [23]): 4 µg/mL (≈ 11.2 µM) | MIC (Salmonella typhimurium [24]): 512 µg/mL (≈ 1430 µM) | MIC (Salmonella typhimurium [25]): 32 µg/mL (≈ 89.3 µM) | MIC (Salmonella typhimurium [26]): 4 µg/mL (≈ 11.2 µM) | MIC (Salmonella typhimurium [27]): 4 µg/mL (≈ 11.2 µM) | MIC (Salmonella typhimurium [28]): 16 µg/mL (≈ 44.7 µM) | MIC (Salmonella typhimurium [29]): 32 µg/mL (≈ 89.3 µM) | MIC (Salmonella typhimurium [30]): 4 µg/mL (≈ 11.2 µM) | MIC (Salmonella typhimurium [31]): 4 µg/mL (≈ 11.2 µM) | MIC (Salmonella typhimurium [32]): 4 µg/mL (≈ 11.2 µM) | MIC (Salmonella typhimurium [33]): 4 µg/mL (≈ 11.2 µM) | MIC (Salmonella typhimurium [34]): 64 µg/mL (≈ 179 µM) | MIC (Salmonella typhimurium [35]): 32 µg/mL (≈ 89.3 µM) | MIC (Salmonella typhimurium [36]): 128 µg/mL (≈ 357 µM) | MIC (Salmonella typhimurium [37]): 4 µg/mL (≈ 11.2 µM) | MIC (Salmonella typhimurium [38]): 4 µg/mL (≈ 11.2 µM) | MIC (Salmonella typhimurium [39]): 2 µg/mL (≈ 5.58 µM) | MIC (Salmonella typhimurium [40]): 64 µg/mL (≈ 179 µM) | MIC (Salmonella typhimurium [41]): 64 µg/mL (≈ 179 µM)
